Consider 5 molecules from patent US20220062233A1 (The Board of Trustees of the Leland Stanford Junior …, priority 2018, published 2022).

One may read the IC50 as the concentration that inhibits the measured activity by half. A word on the IC20: it is the point of the concentration-response curve where the effect stands at 20%.

Series [1] concerns the target T1, interaction between Supt4h and NGN (subunit of Supt5h) (Homo sapiens, UniProt O00267+P63272).
T1 construct: expressed in transfected cells
The series can be described thus: Split Gaussia luciferase complementation assay (M2-8 Luciferase). Format: cell-based. The following applies: M2-8 cells. The essentials:
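HEK293-derived M2-8 cells inducibly express Supt4h-Gluc1 and NGN-Gluc2 fragments (stabilizing mutations) on RheoSwitch ligand addition; ligand plus compound added 24 h after plating and left 24 h. Cells frozen, lysed with 10 μg/ml native coelenterazine, 1 h room temperature dark; complemented luciferase luminescence read.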

In series [2] the test system is M2-8 cells. Nature of the series: M2-8 Cell viability Assay. It is filed as cell-based. Particulars: at the concentration of 1000 nM.
In series [3] the test system is mutant HTT. Nature of the series: Mutant HTT assay in lymphoblastoid cells (LBC), Western blot. It is filed as cell-based, human. Particulars: read-out: LBC IC20 (nM) mHTT, 3 days compound treatment. The essentials: (§1)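 HD patient lymphoblastoid cells (GM14044, 250 CAG repeats in mutant allele) treated with compound for 3 days. Lysates normalised by BCA, run on SDS-PAGE and immunoblotted: mutant HTT with anti-polyQ MW1, wild-type HTT with anti-Huntingtin antibody, TBP and tubulin also probed. Band intensities quantified by infrared imaging.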

Series [4] deals with wild-type HTT. Nature of the series: Wild-type HTT assay in lymphoblastoid cells (LBC), Western blot. Format: cell-based, human. Particulars: 3 days compound treatment, read-out: LBC IC20 (nM) wtHTT. In short, it runs like this:
as §1
(In general: In western blotting, separated proteins are transferred to a membrane and probed.)

The test system of series [5] is Lymphoblastoid cells (GM14044). Nature of the series: LBC cell viability (Cell Titer-Glo). It is filed as cell-based, human. The following applies: at the concentration of IC20, 3-day compound treatment. On the procedure:
Cell viability was determined by Cell Titer-Glo reagent (Promega, PRG9243). After 3-day compound treatment, 15 μl of cell suspension was taken out from plate and incubated with 10 μl of CTG reagent. The values of reaction mixture were detected by Tecan.

For series [6], the system named is mutant HTT. Nature of the series: Mutant HTT assay in induced pluripotent stem cells (iPSC). It is filed as cell-based, human. The following applies: HD patient iPSCs, one day incubation, read-out: iPSC IC20 (nM) mHTT. Here is the method: C. Mutant HTT Assay in Induced Pluripotent Stem Cells (iPSC) a. Cell Culturing and Compound Treatment
Huntington's disease patient iPSCs (ND50036 from NINDS) were detached into single cells by Accutase (25058CI from Corning), counted and plated on a 24-well plate coated with Matrigel (354277 from Corning) at density of 7,000 cells/well. After 48 hrs, compounds were added to the cell culture medium mTeSR1 (85850 from StemCell Technologies) and the cells were incubated for one day. The medium was then removed, and the cells were washed with PBS. After all liquid was removed, the plate was placed at −80° C. overnight. Lysis buffer [30 mM Tris-HCl (pH 8.0), 5 mM NaCl, 0.1% Triton X-100] with the complete proteinase inhibitor cocktail (5892791001 from Sigma-Aldrich) was then added to the cells. Cell samples were lysed on an orbital plate shaker at 4° C. at 700 rpm for 30 min. The supernatants from spinning (14 k rpm for 10 min) were collected. The protein concentrations were determined by BCA assay (23225 from Pierce, ThermoFisher). […]
b. Detection of Mutant HTT Protein
Equal amounts of protein lysate collected from each sample were added to a 96-well plate that had been coated with a human HTT specific monoclonal antibody. After washing away any unbound substances, a biotinylated anti-human mutant HTT specific detection antibody was added. Streptavidin-horseradish peroxidase was subsequently added, followed by TMB Substrate Solution, which yielded a blue product that turns yellow when the Stop Solution was added. The intensity of the color measured was in proportion to the amount of mutant HTT bound in the initial step. The mutant HTT values are then interpolated from a standard curve.

For series [7], the system named is mouse hepatocytes. Nature of the series: In vitro metabolic stability in mouse hepatocytes. It is filed as in vitro ADME. Here is the method: A. In Vitro Metabolic Stability in Hepatocyte
A compound's metabolic stability was assessed using mouse hepatocytes incubated with pre-defined concentration of test articles over several incubation period. The extent of metabolism was calculated from the disappearance of the test compound measured by liquid chromatography mass spectrometry (LC-MS), compared to that of 0-min control. After incubation, quench solutions including internal standards were added and analyzed by LC/MS. The elimination rate constant and intrinsic clearance (CLhepatocyte) values were calculated by linear regression of the compound elimination over the duration of incubation, normalized to the cell number in the given volume of incubation medium.

The test system of series [8] is Gmr::HTT97Q fly (mutant HTT, rough eye). The series can be described thus: HD-Drosophila phenotypic assay (rough eye analysis). Format: in vivo, Drosophila melanogaster. The following applies: Gmr-HTT97Q flies, compound 10 μM in media. The text has this: D. Alleviation of Neuron Degeneration Phenotypes of Mutant HTT in Drosophila HD Models
The Drosophila melanogaster (fruit fly) HD models carry the coding sequence of human HTT exon1 with 97 CAG repeats to mimic mutant HTT of Huntington's disease (HD). The Gmr::HTT97Q fly, expressing mutant HTT primarily in the neurons of Drosophila compound eyes, has a severe degeneration of photoreceptor neurons and the phenotypic trait ‘rough eye’. All of the fly stocks and genetics crosses are maintained at 25° C. on standard cornmeal yeast agar media.
b. Eye Morphology (Rough Eye) Analysis
Fifteen adult male flies (Gmr-HTT97Q/Gmr-HTT97Q or Gmr/Gmr) are crossed with 15 virgin female flies W1118(+/+) in a vial containing standard yeast agar media with the compound in a concentration of 10 μM. Parent-flies are removed from vials at day 7, followed by a collection of newly hatched flies for ‘rough eye’ analysis. The morphology of compound eyes is captured using a Leica DMR upright microscope equipped with a digital camera (CoolSNAP 5.0, Photometrics). To increase the depth of field, imaging software is used to create montage composite images (Helicon Focus, HeliconSoft). A total of 10 flies are collected for analysis in each individual condition, and the biological experiment is conducted three times. DMSO, the reagent solvent of the compound, is included as a control.

The subject of series [9] is Huntington's disease patient iPSCs (ND50036). Nature of the series: iPSC viability at IC20. It is filed as cell-based, human. Particulars: at the concentration of IC20.

Regarding `OB1OCc2cc(CN[C@@H]3CCCc4c3[nH]c3ccc(Br)cc43)ccc21` [Compound 37], the IC50 in series [1] was 101 to 300 nM. In series [2], the “M2-8 Cell viability” value is given as “+ (cell viability is greater than 50% at the concentration of 1000 nM)”. In addition, the IC20 is 101 to 300 nM in series [3], above 1000 nM in [4] and above 100 nM in series [6] (numeric bounds). Further, the “LBC viability at IC20” value in series [5] was “* (cell viability is greater than 60% at the concentration of IC20)”. For the same molecule, the “Mouse HepStability (CLhepatocyte)” value in series [7] was “B (CLhepatocyte 10-30 μl/min/10^6cells)”.
In series [1], `OCc1ccc(CN[C@H]2CCCc3c2[nH]c2ccc(Br)cc32)cc1` [Compound 3] came in with an IC50 above 1000 nM. In series [2], the “M2-8 Cell viability” value is listed as “+ (cell viability is greater than 50% at the concentration of 1000 nM)”. For the same molecule, the 20% effect concentration (IC20) was above 1000 nM in [3], above 1000 nM in series [4] and above 100 nM in [6] (numeric bounds). Moreover, the “HD-Drosophila Phenotypic assay (rescue of rough eye phenotype)” value in [8] is “@ (rough eye phenotype of HD flies is rescued by testing compound less than 40%)”.
In series [1], `OB(O)c1ccc(CN[C@@H]2CCCc3c2[nH]c2ccc(Br)cc32)cc1` [Compound 38, (R)-(4-(((6-bromo-2,3,4,9-tetrahydro-1H-carbazol-1-yl)amino)methyl)phenyl)boronic acid] showed an IC50 of at most 100 nM. In addition, the “M2-8 Cell viability” value in series [2] is “+ (cell viability is greater than 50% at the concentration of 1000 nM)”. Also, the 20% effect concentration (IC20) in [3] is 101 to 300 nM; in [4], above 1000 nM; in [6] (class symbols), below 100 nM. In addition, the “LBC viability at IC20” value in [5] is “* (cell viability is greater than 60% at the concentration of IC20)”. Further, in series [9], the “iPSC viability at IC20” value is recorded as “+ (cell viability is greater than 75% at the concentration of IC20)”. Moreover, the “Mouse HepStability (CLhepatocyte)” value in series [7] was “C (CLhepatocyte >30 μl/min/10^6cells)”.
`OCc1ccc(CN[C@@H]2CCCc3c2[nH]c2ccc(Br)cc32)s1` [Compound 36, (R)-(5-(((6-bromo-2,3,4,9-tetrahydro-1H-carbazol-1-yl)amino)methyl)thiophen-2-yl)methanol] displayed an IC50 in series [1] of at most 100 nM. In addition, the “M2-8 Cell viability” value in series [2] is recorded as “+ (cell viability is greater than 50% at the concentration of 1000 nM)”. In addition, the IC20 is 101 to 300 nM in series [3], above 1000 nM in [4] and below 100 nM in series [6] (class symbols). Also, the “LBC viability at IC20” value in series [5] is on record as “* (cell viability is greater than 60% at the concentration of IC20)”. Besides, in series [9], the “iPSC viability at IC20” value is “+ (cell viability is greater than 75% at the concentration of IC20)”. Further, in series [7], the “Mouse HepStability (CLhepatocyte)” value is listed as “C (CLhepatocyte >30 μl/min/10^6cells)”.
Molecule `CC1(C)OB(c2ccc(CN[C@@H]3CCCc4c3[nH]c3ccc(Br)cc43)cc2)OC1(C)C` [Compound 43, (R)-6-bromo-N-(4-(4,4,5,5-tetramethyl-1,3,2-dioxaborolan-2-yl)benzyl)-2,3,4,9-tetrahydro-1H-carbazol-1-amine] came in with a half-inhibitory concentration (IC50) in [1] of at most 100 nM. Moreover, in [2], the “M2-8 Cell viability” value is “+ (cell viability is greater than 50% at the concentration of 1000 nM)”. In addition, the 20% effect concentration (IC20) in series [3] is 101 to 300 nM; in series [4], above 1000 nM; in series [6] (class symbols), below 100 nM. Also, the “LBC viability at IC20” value in [5] was “* (cell viability is greater than 60% at the concentration of IC20)”. Further, the “iPSC viability at IC20” value in series [9] is “+ (cell viability is greater than 75% at the concentration of IC20)”.
